Results taken from patent US20220265655A1, “METHODS OF TREATING INFLAMMATORY DISEASES” (Ribon Therapeutics, Inc., priority 2021, published 2022).
Values belong to the compound of their own block, whether it stands above or below them.

Columns and labels:
[1] = test system: Alternaria sensitized mice challenged with Alternaria; details: Compound 2 500 mg/kg b.i.d., Compound 1 500 mg/kg with 1-ABT 25 mg/kg b.i.d.
[2] = test system: DNCB-induced atopic dermatitis model; test: DNCB-induced atopic dermatitis model (Example D)
[3] = test system: IMQ-induced psoriasis model; test: Imiquimod (IMQ)-induced psoriasis model (Example E)
[4] = test system: BLM-induced pulmonary fibrosis model
Description: BLM-induced pulmonary fibrosis is an established disease model for IPF. In the model, alveolar injury and interstitial inflammation/fibrosis are induced by intracheal BLM administration.
Formulations (50 μL/vial) were kept for dose verification on the first and last dosing day (2 vials each, total 4 vials).
At Day 0, 40 mice were induced to develop pulmonary fibrosis by a single intratracheal administration of bleomycin hydrochloride (BLM, Nippon Kayaku, Japan) in PBS at a dose of 3.0 mg/kg, in a volume of 50 μL per animal using Microsprayer® (Penn-Century, USA) under a mixture of medetomidine (0.75 mg/kg), midazolam (4 mg/kg) and butorphanol (5 mg/kg) anesthesia by intraperitoneal administration in a volume of 10 mL/kg. […] Five mice were intratracheally administered PBS, instead of the BLM, which served as the Sham group.
Tofacitinib was administered orally at a dose of 50 mg/kg in a volume of 10 mL/kg twice daily (total of 100 mg/kg/day).
The viability, clinical signs and behavior were monitored daily. Body weight was recorded daily from Day 0. Dosing volume was adjusted based on the latest body weight. […] The animals were sacrificed on Day 14 by exsanguination through the abdominal vena cava under a mixture of medetomidine, midazolam and butorphanol anesthesia. The time of the dosing and termination was recorded. The left and post-caval lobe weight for all mice were recorded.
For Group 2-4, BALF samples were collected by flushing the lung via the trachea with sterile PBS three times (1st BALF, 2nd BALF and 3rd BALF, 0.8 mL each) at sacrifice under a mixture of medetomidine, midazolam and butorphanol anesthesia. The 1st BALF was centrifuged at 3,000×g for 5 min at 4° C. and the supernatant was collected and stored at −80° C. The cell pellet from the first fraction (1st BALF) was resuspended and added to the remaining fractions of lavage fluid (2nd and 3rd BALF). The total BALF was centrifuged at 1,000×g for 5 min at 4° C. and the supernatant was removed. Ammonium-Chloride-Potassium (ACK) lysing buffer was added to the pellet and washed for lysis of erythrocytes. After addition of cold PBS, the fluid was centrifuged at 1,000×g for 3 min at 4° C. and the supernatant was removed. Resuspended in PBS and total cell number of BALF was counted using a hemocytometer (C-Chip disposable hemocytometer, Digital Bio). After counting the total cells, the cell suspension was re-suspended in PBS to 5×10^5 cells/mL. A smear sample was then prepared by spotting 100 μL of cell suspension onto slides, and air-dried using a dryer on cool setting.
Indwelling needle was inserted into trachea and connected to instillation route of syringe. The syringe was loaded with 10% neutral buffered formalin and kept at the height of 20 cm. […] The three unfixed lobes were washed with cold saline and measured wet weight.
To quantify lung hydroxyproline content, frozen left lung samples were processed by an acid hydrolysis method as follows. […] AC buffer (2.2M acetic acid/0.48M citric acid, 200 μL) was added to the samples, followed by centrifugation to collect the supernatant. […] The samples were then mixed with Ehrlich's solution (300 μL) and heated at 65° C. for 20 minutes to develop the color. After samples were cooled on ice and centrifuged to remove precipitates, the optical density of each supernatant was measured at 560 nm. The concentrations of hydroxyproline were calculated from the hydroxyproline standard curve. Lung hydroxyproline levels were expressed as […] per left lung.
For Group 2-4, BALF IL-4, IL-6, IL-10 and IL-17 levels were quantified by Quantikine enzyme linked immunosorbent assay kits (code. M4000B for IL-4, code. M6000B for IL-6, code. M1000B for IL-10, code. M1700 for IL-17, R&D systems) according to manufacturer instructions.
For Masson's Trichrome staining, the sections were deparaffinized and rehydrated, followed by re-fixation with Bouin's solution for 15 min.

[5] = test system: OXZ-induced colitis mouse model; details: Compound 1 1,000 mg/kg PO BID; tofacitinib 10 mg/kg PO BID
[6] = ratio (percentage) of BALF cells, mean ± SD

Structure (SMILES): O=c1[nH]c(CS[C@H]2CC[C@H](O)CC2)nc2cc(OCC3CC3)cc(F)c12 [Compound 2, 7-(Cyclopropylmethoxy)-5-fluoro-2-(((trans-4-hydroxycyclohexyl)thio)methyl)quinazolin-4(3H)-one]
- IgE blood serum levels [1]: reduced
- levels of IL4, IL-5, IL-13, and IL-33 in BAL fluid [1]: reduced
- levels of IL4, IL-5, IL-13, and IL-33 in lung tissue [1]: reduced
- levels of eosinophils in BAL fluid [1]: reduced
- levels of neutrophils in BAL fluid [1]: reduced
- airway mucus in lung tissue ([1]; days 19-25): reduced

- bodyweight ([2]; monitored daily, Compound 1 500 mg/kg PO BID, DEX ointment topical QD): caused decreases in bodyweight
- bodyweight ([3]; monitored daily, consecutive IMQ treatment and dosing): caused decreases in bodyweight
Structure (SMILES): C[C@@H]1C[C@H]2[C@@H]3CCC4=CC(=O)C=C[C@]4(C)[C@@]3(F)[C@@H](O)C[C@]2(C)[C@@]1(O)C(=O)CO [DEX, Dexamethasone]
- inhibition rate of clinical scoring (AUC of total clinical score) compared to vehicle ([2]; Compound 1 500 mg/kg PO BID, DEX ointment 70 mg topical QD, P<0.0001): 43.5%
- total clinical score, peak / high values ([2]; Compound 1: peak on Day 17, DEX: high clinical scores, vehicle peak 11.9 on Day 17): 6-7
- inhibition rate of clinical scoring (AUC of total clinical score) ([3]; Compound 1 500 mg/kg PO BID (P<0.001), DEX ointment 70 mg topical QD (P<0.0001)): 87.7%

Structure (SMILES): C[C@@H]1CCN(C(=O)CC#N)C[C@@H]1N(C)c1ncnc2[nH]ccc12 [Tofacitinib free base, Tofacitinib]
- mean body weight changes (% of Day 0) compared with Vehicle group ([4]; Compound 1 500 mg/kg PO BID, Tofacitinib free base 50 mg/kg PO BID, Day 1-14): significantly higher than that of the Vehicle group from Day 6 to Day 14
- Left lung weight ([4]; Day 14, mean ± SD): 101 ± 9 mg
- Post-caval lobe weight ([4]; Day 14, mean ± SD): 27 ± 4
- Right inferior lobe weight ([4]; Day 14, mean ± SD): 84 ± 14
- Ashcroft score ([4]; Masson's trichrome-stained lung sections, mean ± SD): 2.2 ± 1.2
- mice found dead during the treatment period ([4]; before reaching Day 14): no dead animals
- bodyweight ([4]; day of sacrifice (Day 14), mean ± SD): 18.1 ± 1.7 g
- BALF IL-6 ([4]; mean ± SD): 4.4 ± 5.5 pg/mL
- Lung hydroxyproline (μg/left lung) ([4]; mean ± SD): 49.3 ± 8.3 μg/left lung
- Total cells (×10^4) in BALF ([4]; mean ± SD): 83.8 ± 50.0 ×10^4
- BALF IL-10 ([4]; mean ± SD, Compound 1 (n = 6), Tofacitinib free base (n = 1)): 2.9 pg/mL
- mean body weight on the day of sacrifice compared with the Vehicle group ([4]; mouse, in vivo): increasing trend
- mean right inferior lobe weight compared with the Vehicle group ([4]; mouse, in vivo): significant decreases
- total number of cells in BALF compared with the Vehicle group ([4]; mouse, in vivo): no significant difference
- Eosinophil in BALF ([4]; ratio (percentage) of BALF cells): 0.0
- Lymphocyte in BALF [4, 6]: 11.7 ± 14.5
- Monocyte in BALF [4, 6]: 88.0 ± 15.2
- Neutrophil in BALF [4, 6]: 0.3 ± 0.9
- AUC of body weight change, difference to vehicle group [5]: a statistical difference was not seen
- AUC of the DAI score in comparison to vehicle [5]: suppressed
- DAI score in comparison to vehicle treated mice [5]: suppressed
- body weight loss compared with vehicle group [5]: suppressed
- colon density (increase induced by OXZ) [5]: also suppressed
- colon histology (H&E staining) compared to the vehicle group [5]: appeared similar to the sham group
- colon length (reduction induced by OXZ) [5]: also suppressed
- colon weight (increase induced by OXZ) [5]: also suppressed
- pathological score of colitis severity in comparison to the vehicle control group [5]: increased integrity of the crypt structure, less inflammatory cell infiltration, reduced muscle thickening and less crypt abscess
